Structures can show the parent of a compound that is named as a salt. Where two headings read alike, the source gives them in different places.
Biological target: T1, Human IP6K1 (Homo sapiens, UniProt Q92551)
T1 construct: GST (N, cleaved yes); made in house; host or cells: C43 E. coli, pGEX-6P-2
Assay: IP6K1 high-throughput screen of the Sigma LOPAC (ADP-Glo Max, single point);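 note: final compound concentration 10µM in 5% DMSO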
Format: biochemical

[1] = LOPAC single-point screen, ADP-Glo Max luminescence raw signal per well
[2] = LOPAC single-point screen, Z-score from plate average and StDev
[3] = LOPAC single-point screen, Z-score relative to plate average and StDev
[4] = LOPAC single-point screen, ADP-Glo Max raw signal per well
[5] = LOPAC single-point screen, Z-score against plate average and StDev
[6] = LOPAC single-point screen, Z-score from raw signal with plate average and StDev
[7] = Sigma LOPAC single-point screen, ADP-Glo Max raw signal per well
[8] = Sigma LOPAC single-point screen, Z-score from plate average and StDev

T1 sequence (Q92551 whole entry): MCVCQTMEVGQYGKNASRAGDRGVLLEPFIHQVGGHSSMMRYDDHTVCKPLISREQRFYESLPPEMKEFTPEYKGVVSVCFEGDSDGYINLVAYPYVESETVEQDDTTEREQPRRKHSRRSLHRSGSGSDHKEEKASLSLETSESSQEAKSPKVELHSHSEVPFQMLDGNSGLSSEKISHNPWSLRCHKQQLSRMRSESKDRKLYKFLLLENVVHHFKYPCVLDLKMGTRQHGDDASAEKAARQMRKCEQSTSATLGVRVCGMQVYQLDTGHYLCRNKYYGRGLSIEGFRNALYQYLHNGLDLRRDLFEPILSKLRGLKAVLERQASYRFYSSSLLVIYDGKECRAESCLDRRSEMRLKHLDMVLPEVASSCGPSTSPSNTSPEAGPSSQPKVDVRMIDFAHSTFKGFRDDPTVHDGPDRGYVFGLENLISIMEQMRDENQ

CCCCC/C=C\C[C@@H](O)/C=C/c1cccc(C[C@@H](O)CCCCO)n1 [U-75302]
Raw Signal [1]: 63793
Z-score [2]: 1.509

Cc1c(C)c2c(c(C)c1O)CCC(C)(CN1CCN(c3cc(N4CCCC4)nc(N4CCCC4)n3)CC1)O2.Cl.Cl (stereo not drawn) [U-83836 dihydrochloride]
Raw Signal [1]: 52883
Z-score [3]: -0.6102

CCCN(CCC)C1Cc2cc(OC)c(OC)cc2C1.O=C(O)/C=C\C(=O)O [U-99194A maleate]
Raw Signal [4]: 57664
Z-score [5]: 0.3187

CC(C)Oc1cccnc1N(C)C1CCN(Cc2ccccc2)CC1.O=C(O)/C=C\C(=O)O [U-101958 maleate]
Raw Signal [1]: 65094
Z-score [2]: 1.762

Brc1c(NC2=NCCN2)ccc2nccnc12 [UK 14,304]
Raw Signal: 53944
Z-score: -0.4041

COc1ccccc1N1CCN(CCCNc2cc(=O)n(C)c(=O)n2C)CC1 [Urapidil hydrochloride]
Raw Signal [4]: 54926
Z-score [6]: -0.2133

COc1ccccc1N1CCN(CCCNc2c(C)c(=O)n(C)c(=O)n2C)CC1 [Urapidil, 5-Methyl-]
Raw Signal [7]: 62058
Z-score [8]: 1.172

O=c1ccn(C2OC(COP(=O)(O)OP(=O)([O-])O)C(O)C2O)c(=O)[nH]1.[Na+] (stereo not drawn) [Uridine 5 -diphosphate sodium]
Raw Signal [7]: 58265
Z-score [8]: 0.4354

C[C@H](N)CN1CCc2ccc(Br)cc21.C[C@H](N)CN1CCc2ccc(Br)cc21.O=C(O)/C=C/C(=O)O [VER-3323 hemifumarate salt]
Raw Signal [7]: 59728
Z-score [8]: 0.8963

COc1ccccc1NC(=O)Nc1nc(-c2cccnc2)nc2ccccc12 [VUF 5574]
Raw Signal [7]: 58097
Z-score [8]: 0.4028

CCCC(CCC)C(=O)O [Valproic acid sodium]
Raw Signal [1]: 64941
Z-score [2]: 1.772

CCN(CC)C(=O)c1ccc(O)c(OC)c1 [Vanillic acid diethylamide]
Raw Signal [4]: 56150
Z-score [5]: 0.1996

CC[C@]1(O)C[C@@H]2CN(CCc3c([nH]c4ccccc34)[C@@](C(=O)OC)(c3cc4c(cc3OC)N(C)[C@H]3[C@@](O)(C(=O)OC)[C@H](OC(C)=O)[C@]5(CC)C=CCN6CC[C@]43[C@@H]65)C2)C1.O=S(=O)(O)O [Vinblastine sulfate salt]
Raw Signal [4]: 55305
Z-score [6]: -0.1396

CC[C@]1(O)C[C@H]2CN(CCc3c([nH]c4ccccc34)[C@@](C(=O)OC)(c3cc4c(cc3OC)N(C=O)[C@H]3[C@@](O)(C(=O)OC)[C@H](OC(C)=O)[C@]5(CC)C=CCN6CC[C@]43[C@@H]65)C2)C1 [Vincristine sulfate]
Raw Signal [7]: 57865
Z-score [8]: 0.3577

CCOC(=O)C1=C[C@]2(CC)CCCN3CCc4c(n1c1ccccc41)[C@@H]32 [Vinpocetine]
Raw Signal [7]: 59958
Z-score [8]: 0.7643

Cl.NCCCCCCNS(=O)(=O)c1cccc2c(Cl)cccc12 [W-7 hydrochloride]
Raw Signal [4]: 57979
Z-score [5]: 0.01161

COc1ccccc1N1CCN(CCN(C(=O)C2CCCCC2)c2ccccn2)CC1.O=C(O)/C=C\C(=O)O [WAY-100635 maleate]
Raw Signal [4]: 54317
Z-score [6]: -0.3316

COc1cccc(OC)c1OCCNCC1COc2ccccc2O1.Cl (stereo not drawn) [WB-4101 hydrochloride]
Raw Signal [7]: 58268
Z-score [8]: 0.6298

C#C[C@]1(O)CC[C@H]2[C@@H]3CCC4=Cc5nc6nc7ccccc7n6cc5C[C@]4(C)[C@H]3CC[C@@]21C [WIN 62,577]
Raw Signal [7]: 58080
Z-score [8]: 0.3995

COC[C@H]1OC(=O)c2coc3c2[C@@]1(C)C1=C(C3=O)[C@@H]2CCC(=O)[C@@]2(C)C[C@H]1OC(C)=O [Wortmannin from Penicillium funiculosum]
Raw Signal [1]: 53582
Z-score [3]: -0.4744

CC(Oc1ccc(Oc2cnc3ccc(Cl)cc3n2)cc1)C(=O)O (stereo not drawn) [XK469]
Raw Signal [4]: 55038
Z-score [6]: -0.1915

O=C(NCCNCC(O)COc1ccc(O)cc1)N1CCOCC1 (stereo not drawn) [Xamoterol hemifumarate]
Raw Signal [7]: 60033
Z-score [8]: 0.7789

CCCn1c(=O)c2[nH]c(-c3ccc(OCC(=O)NCCN)cc3)nc2n(CCC)c1=O [Xanthine amine congener]
Raw Signal [7]: 61437
Z-score [8]: 1.052

Cc1cccc(C)c1N=C1NCCCS1 [Xylazine hydrochloride]
Raw Signal: 56727
Z-score: 0.1366

Cc1cc(C(C)(C)C)cc(C)c1CC1=NCCN1 [Xylometazoline hydrochloride]
Raw Signal [4]: 57404
Z-score [5]: 0.2681

C[C@@H](N)[C@H]1CC[C@H](C(=O)Nc2ccncc2)CC1.Cl.Cl [Y-27632 dihydrochloride]
Raw Signal [4]: 53228
Z-score [6]: -0.3938

OCc1ccc(-c2nn(Cc3ccccc3)c3ccccc23)o1 [YC-1]
Raw Signal [4]: 55059
Z-score [6]: -0.1874

COc1ccc(CCN(C)CCc2ccc(OC)c(OC)c2)cc1OC.Cl [YS-035 hydrochloride]
Raw Signal [4]: 55463
Z-score [6]: -0.109

COC(=O)[C@@H]1[C@H]2C[C@H]3c4[nH]c5ccccc5c4CCN3C[C@@H]2CC[C@@H]1O [Yohimbine hydrochloride]
Raw Signal [4]: 57737
Z-score [5]: 0.3328

O=C(N[C@@H](Cc1ccccc1)C(=O)CCl)OCc1ccccc1 [Z-L-Phe chloromethyl ketone]
Raw Signal [4]: 56278
Z-score [6]: -0.288

CC(C)N(CCC(=O)c1ccc2ccccc2c1)Cc1ccccc1.Cl [ZM 39923 hydrochloride]
Raw Signal [4]: 54461
Z-score [5]: 0.01134

CCCOc1ccccc1-c1nc2nn[nH]c2c(=O)[nH]1 [Zaprinast]
Raw Signal [4]: 56198
Z-score [5]: 0.03384

COc1cc(-c2ccc(=O)[nH]n2)ccc1OC(F)F [Zardaverine]
Raw Signal [4]: 57604
Z-score [5]: 0.307

CN(C)C/C=C(/c1ccc(Br)cc1)c1cccnc1 [Zimelidine dihydrochloride]
Raw Signal [1]: 63127
Z-score [2]: 1.38

NS(=O)(=O)Cc1noc2ccccc12 [Zonisamide sodium]
Raw Signal [4]: 56166
Z-score [5]: 0.02763

CN1CCN(C(=O)OC2c3nccnc3C(=O)N2c2ccc(Cl)cn2)CC1 (stereo not drawn) [Zopiclone]
Raw Signal [4]: 56506
Z-score [5]: 0.09368

N=C(N)NC(CCC(=O)O)C(=O)O (stereo not drawn) [alpha-Guanidinoglutaric acid]
Raw Signal [4]: 54052
Z-score [6]: -0.2265

CN1[C@@H](CC(=O)c2ccccc2)CCC[C@H]1C[C@H](O)c1ccccc1.Cl [alpha-Lobeline hydrochloride]
Raw Signal [4]: 53929
Z-score [5]: -0.07805

CC(N)Cc1c[nH]c2ccc(O)cc12.O=C(O)/C=C\C(=O)O (stereo not drawn) [alpha-Methyl-5-hydroxytryptamine maleate]
Z-score [5]: 0.02915

Cl.N[C@@H](CCl)C(=O)O [beta-Chloro-L-alanine hydrochloride]
Raw Signal [4]: 58972
Z-score [5]: 0.1865

C[C@]12CC[C@@H]3c4ccc(O)cc4CC[C@H]3[C@@H]1CC[C@@H]2O [beta-Estradiol]
Raw Signal [1]: 51790
Z-score [3]: -0.6858

CC1(C)CCC2=C(O1)c1ccccc1C(=O)C2=O [beta-Lapachone]
Raw Signal [4]: 54181
Z-score [5]: -0.03571

NC/C=C\C(=O)O [cis-4-Aminocrotonic acid]
Raw Signal [1]: 52551
Z-score [3]: -0.6747

OCCN1CCN(CC/C=C2/c3ccccc3Sc3ccc(C(F)(F)F)cc32)CC1 [cis-(Z)-Flupenthixol dihydrochloride]
Raw Signal [4]: 56412
Z-score [5]: 0.2528

O=C(O)[C@@H]1C[C@H](C(=O)O)N1 [cis-Azetidine-2,4-dicarboxylic acid]
Raw Signal [1]: 69033
Z-score [2]: 1.959

C#CC(N)CCC(=O)O (stereo not drawn) [gamma-Acetylinic GABA]
Raw Signal [1]: 54991
Z-score [3]: -0.5147

N[C@H](CCC(=O)NCS(=O)(=O)O)C(=O)O [gamma-D-Glutamylaminomethylsulfonic acid]
Raw Signal [7]: 58321
Z-score [8]: 0.6405

CC(C(=O)O)c1ccc(CC2CCCC2=O)cc1 (stereo not drawn) [loxoprofen]
Raw Signal [1]: 49153
Z-score [3]: -0.8805

NC(N)=NCc1cccc(I)c1.NC(N)=NCc1cccc(I)c1.O=S(=O)(O)O [m-Iodobenzylguanidine hemisulfate]
Raw Signal [7]: 60474
Z-score [8]: 1.022

Cl.Cl.Oc1ccc2c3c1O[C@H]1c4[nH]c5c(c4C[C@@]4(O)[C@@H](C2)N(CC2CC2)CC[C@]314)C[C@@]1(O)[C@H]2Cc3ccc(O)c4c3[C@@]1(CCN2CC1CC1)[C@H]5O4 [nor-Binaltorphimine dihydrochloride]
Raw Signal [7]: 56488
Z-score [8]: 0.3519

Cl.Nc1cc(Cl)c(N=C2NCCN2)c(Cl)c1 [p-Aminoclonidine hydrochloride]
Raw Signal [4]: 56073
Z-score [6]: -0.3241

O=C1C=CC(=O)C=C1 [p-Benzoquinone]
Raw Signal [1]: 51681
Z-score [3]: -1.098

N[C@@H](Cc1ccc(F)cc1)C(=O)O [p-Fluoro-L-phenylalanine]
Raw Signal [4]: 55466
Z-score [5]: 0.06072

Cl.Clc1cc(I)cc(Cl)c1NC1=NCCN1 [p-Iodoclonidine hydrochloride]
Raw Signal [4]: 52843
Z-score [6]: -0.2605

COc1ccccc1N1CCN(CCN(C(=O)c2ccc(F)cc2)c2ccccn2)CC1.Cl.Cl [p-MPPF dihydrochloride]
Raw Signal [4]: 52235
Z-score [6]: -0.3627

COc1ccccc1N1CCN(CCN(C(=O)c2ccc(I)cc2)c2ccccn2)CC1.Cl [p-MPPI hydrochloride]
Raw Signal [7]: 60360
Z-score [8]: 1.003

C[C@]12CC[C@H](O)CC1=CC[C@@H]1[C@@H]2CC[C@]2(C)C(=O)CC[C@@H]12 [trans-Dehydroandrosterone]
Raw Signal [4]: 53982
Z-score [6]: -0.2407

(+)-Catechin Hydrate
Raw Signal [4]: 56524
Z-score [6]: -0.2447

(+)-Cyclazocine
Raw Signal [4]: 53235
Z-score [6]: -0.3924
